In experiment [1] the test system is NK cells. In words: Influence of ROS and/or p53 inhibitor on ex-vivo culture (expansion) of NK cells, cell number by hemocytometer. The experiment is classed as cell-based, human. The conditions noted are these: PBMC-derived NK cells cultured 10 days, then inhibitor at three-day intervals, counted after culture for 2 weeks; apocynin 400 μM, trolox 50 μM, pifithrin-α 1 μM, combination 50 μM trolox + 500 nM pifithrin-α. As to the method:
Human blood was prepared, and subjected to centrifugation at 2500 rpm for 30 minutes using Ficoll (Ficoll-Paque™ PLUS, GE Healthcare). Then, peripheral blood mononuclear cells were isolated from a buffy coat. Afterward, a Jurkat cell line irradiated at 100 Gy and an EBV-LCL cell line were co-cultured with PBMCs:KL-1:EBV-LCL in a ratio of 1:0.5:0.5 in hRPMI medium prepared by adding 10% FBS and 1% penicillin/streptomycin to RPMI1640 medium in the presence of 500 U/ml IL-2, and the medium was exchanged with hRPMI medium supplemented with 500 U/ml IL-2 once for 2 to 3 days. To examine the influence of an ROS inhibitor on NK cells, the NK cells were cultured for 10 days under the conditions of Preparation Example 1. Then, 400 μM of an apocynin (Calbiochem), 50 μM of trolox (Santa Cruz) and 1 μM of pifithrin-α (Santa Cruz) were treated individually, and 50 μM trolox and 500 nM pifithrin-α were treated in a combination. The inhibitor was treated at three-day intervals, and a cell number was assessed after culture for 2 weeks. Here, the medium was exchanged with hRPMI medium added with 500 U/ml of IL-2 once for three days, and a cell number was calculated using a hemocytometer.

The test system of experiment [2] is NK cells. Put plainly: ROS generation in in vitro-expanded NK cells (DCF-DA flow cytometry). The conditions noted are these: 100 μM DCF-DA; for order of ROS generation among treated groups: rank order of groups, lowest ROS first. It counts as cell-based, human. As to the method: To measure ROS generated in in vitro-expanded NK cells, NK cells cultured by treatment with an inhibitor individually or in combination were harvested. 1×10^6 cells were seeded per well in a 24-well plate, cultured in a 5% CO2 incubator for 30 minutes, and then collected. The cells were washed once with 1 ml of PBS, followed by flow cytometry using 100 μM DCF-DA. The experiment was performed on a control group which was not treated, and experimental groups treated with apocynin, trolox, pifithrin-α and trolox+pifithrin-α, respectively, and the results are shown in FIG. 9.

Each structure is given as a SMILES string.

Turning to `COc1cc(C(C)=O)ccc1O` [apocynin, 1-(4-hydroxy-3-methoxyphenyl)-ethanone], the “NK cell number compared with the control group” value in the experiment on NK cells [1] is on record as “statistically significant increase”. The “order of ROS generation among treated groups” value (“order” for short) with NK cells [2] is given as “trolox<pifithrin-α<trolox+pifithrin-α<apocynin<control group”.

On to `Br.Cc1ccc(C(=O)Cn2c3c(sc2=N)CCCC3)cc1` [pifithrin-α, 2-(2-imino-4,5,6,7-tetrahydrobenzothiazol-3-yl)-1-p-tolylethanone hydrobromide], for which the “NK cell number compared with the control group” value in the experiment with NK cells [1] is reported as “statistically significant increase”. In addition, the “order” value in the experiment on NK cells [2] is reported as “trolox<pifithrin-α<trolox+pifithrin-α<apocynin<control group”.

For `Cc1c(C)c2c(c(C)c1O)CCC(C)(C(=O)O)O2` (stereo not shown) [trolox, 6-hydroxy-2,5,7,8-tetramethylchroman-2-carboxylic acid], the “NK cell number compared with the control group” value in the experiment with NK cells [1] is given as “statistically significant increase”. Also, the “ROS generation compared with the control group” value with NK cells [2] (NK cells cultured with inhibitor) is “significantly decreased”. Moreover, the “order” value in the experiment on NK cells [2] was “trolox<pifithrin-α<trolox+pifithrin-α<apocynin<control group”.

The values are drawn from patent publication US11110126B2, “Method of expanding NK cell and composition for culturing” (Korea University Research and Business Foundation, priority 2015, dated 2021).
